Values of other authors, collected in article PMC11313193, “Which Constituents Determine the Antioxidant Activity and Cytotoxicity of Garlic? Role of Organosulfur Compounds and Phenolics” (International Journal of Molecular Sciences, 2024).

How the values were obtained:
Parameters in all cases: method as in PMID 16675472
SKOV-3 cells = details: cited from earlier work
SKOV-3 xenograft tumors = details: administered intragastrically; cited from earlier work
HO8910 xenograft tumors = details: administered intragastrically; cited from earlier work

C=CCSSC[C@H](N)C(=O)O [SAMC, S-allylmercaptocysteine]
inhibited: Migration of SKOV-3 cells and their invasiveness (SKOV-3 cells) | Development of xenograft tumors formed by SKOV-3 cells (SKOV-3 xenograft tumors) | Development of xenograft tumors formed by HO8910 cells (HO8910 xenograft tumors)
